In US11485728B2, “Small molecules for the treatment of autoimmune diseases and cancer” (Athos Therapeutics, Inc., priority 2020, dated 2022):

Target: T1, CYP2C8 (Homo sapiens, UniProt P10632)
T1 construct: from tissue; host or cells: pooled human liver microsomes
T1 sequence (P10632 1-490): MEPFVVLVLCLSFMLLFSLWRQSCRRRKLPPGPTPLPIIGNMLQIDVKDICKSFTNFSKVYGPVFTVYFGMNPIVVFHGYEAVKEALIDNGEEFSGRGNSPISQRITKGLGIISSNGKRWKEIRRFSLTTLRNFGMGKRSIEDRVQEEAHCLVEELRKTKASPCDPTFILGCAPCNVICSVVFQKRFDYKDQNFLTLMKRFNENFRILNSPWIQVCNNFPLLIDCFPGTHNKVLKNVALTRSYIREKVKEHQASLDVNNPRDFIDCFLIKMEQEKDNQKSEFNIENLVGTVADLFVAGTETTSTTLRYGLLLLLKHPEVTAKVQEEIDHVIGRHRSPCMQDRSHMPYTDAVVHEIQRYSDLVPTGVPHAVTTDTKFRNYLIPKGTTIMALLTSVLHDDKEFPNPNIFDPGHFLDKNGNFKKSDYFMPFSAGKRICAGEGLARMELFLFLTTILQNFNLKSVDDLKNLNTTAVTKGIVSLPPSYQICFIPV
Assay: CYP-direct inhibition, CYP2C8
Assay type: in vitro ADME
Procedure: Many drugs inhibit cytochrome P450 enzymes to cause clinically significant changes in the pharmacokinetics of other drugs. In vitro cytochrome P450 inhibition, can provide crucial information in evaluating potential clinical drug-drug interactions and is useful for focusing in vivo tests to areas of concern. The cytochrome P450 inhibition assay was developed by preparing a working cocktail solution consisting of six probe substrates 10 μM ethoxy-resorufin (CYP1A2), 100 μM rosiglitazone (CYP2C8), 50 μM diclofenac (CYP2C9), 300 μM S-mephenytoin (CYP2C19), 50 μM dextromethorphan (CYP2D6), and 20 μM midazolam (CYP3A4). A mixture solution consists of 140 uL of 0.286 mg/mL of pooled human liver microsome working solution and 20 uL working solutions of test articles, standard control inhibitors, or positive control placebo and 20 uL of substrate cocktail mixture working solution was prepared. The mixture solution was pre-warm in a gentle shaking bath at 37±2° C. for 5 minutes. The enzymatic reaction started by adding 20 uL of NRS working solution to the mixture solution and incubated for 10 minutes at 37±2° C. To stop the reaction, an addition of 400 μL cold stop solution (acetonitrile containing 50 ng/mL Tolbutamide as an internal standard (I.Std.) was added to the mixture solution. The final concentration of test article, inhibitors, substrates, and cofactors are noted in Table 0.1 below. Two individual samples were prepared for each test compound. The extracted samples were vortexed and then centrifuged at 4500 rpm for 7 minutes using Eppendorf Centrifuge 5910R. 200 uL of supernatant was diluting with 200 uL of 50% Methanol into 96-DW plate for LC/MS/MS analysis
Concentration-response plots are used to determine the effects of an inhibitor on an enzymatic reaction. A typical concentration-response plot provides fractional activity (Y axis) is plotted as a function of log inhibitor concentration (X axis). The data are fitted using a standard Sigmoidal dose-response equation which is also called a […] logistic equation. The concentration of compound that results in 50% inhibition of maximal activity is termed as the IC50 (inhibitor concentration yielding 50% inhibition). IC50 value is calculated using Prism GraphPad software, version 9. […].
Cytochrome P450 inhibition of a drug is a key factor in determining pharmacokinetic drug-drug interactions. The objective of this study was to evaluate the inhibition potential of G9a inhibitors on six (6) major human cytochrome P450 enzymes, including CYP1A2, CYP2C8, CYP2C9, CYP2C19, CYP2D6, and CYP3A4. Inhibition was determined by using a substrate cocktail and analyzing the rate of specific metabolites formation. The cytochrome P450 inhibition assay was developed using a cocktail consisting of six (6) probe substrates ethoxy-resorufin (CYP1A2), rosiglitazone (CYP2C8), diclofenac (CYP2C9), S-mephenytoin (CYP2C19), dextromethorphan (CYP2D6), and midazolam (CYP3A4). The cocktail was incubated in human liver microsome with NADPH regenerating system (NRS) in a shaking bath at 37±2° C. The formation of specific metabolites was monitored by LC/MS/MS. Test compound was added to the cocktail-liver microsome mixture at varying concentrations and its effect on cytochrome P450 activity was determined by analyzing the rate of specific metabolite formation. The percent inhibition was calculated and plotted with reference to the concentration, and the IC50 value for inhibition was derived by fitting the data with a using log(inhibitor) vs. normalized response with variable slope least squares fit by Graphpad Prism® software. […].

Compared with `COCCNc1nc(N2CCC(F)(F)CC2)nc2cc(OCCCN3CCCC3)c(OC)cc12` [Compound 4, 2-(4,4-difluoropiperidin-1-yl)-6-methoxy-N-(2-methoxyethyl)-7-(3-(pyrrolidin-1-yl)propoxy)quinazolin-4-amine], `COc1cc2c(NCC(N)=O)nc(N3CCC(F)(F)CC3)nc2cc1OCCCN1CCCC1` [Compound 9, 2-((2-(4,4-difluoropiperidin-1-yl)-6-methoxy-7-(3-(pyrrolidin-1-yl)propoxy)quinazolin-4-yl)amino)acetamide] is higher in IC50: 27.4 µM for the first, greater than 100 µM for the second. The first is the more potent here.

First: COc1cc2c(NC3CCNCC3)nc(N3CCC(F)(F)CC3)nc2cc1OCCCN1CCCC1 [Compound 8, 2-(4,4-difluoropiperidin-1-yl)-6-methoxy-N-(piperidin-4-yl)-7-(3-(pyrrolidin-1-yl)propoxy)quinazolin-4-amine]
Second: COc1cc2c(NC3COC3)nc(N3CCC(F)(F)CC3)nc2cc1OCCCN1CCCC1 [Compound 11, 2-(4,4-difluoropiperidin-1-yl)-6-methoxy-N-(oxetan-3-yl)-7-(3-(pyrrolidin-1-yl)propoxy)quinazolin-4-amine]
The IC50 of the first is higher: greater than 100 µM for the first, 16 µM for the second.

First: COc1cc2c(NC3CCS(=O)(=O)CC3)nc(N3CCCC3)nc2cc1OCCCN1CCCC1 [Compound 80, 4-((6-methoxy-2-(pyrrolidin-1-yl)-7-(3-(pyrrolidin-1-yl)propoxy)quinazolin-4-yl)amino)tetrahydro-2H-thiopyran 1,1-dioxide]
Second: COc1cc2c(NC3CCS(=O)(=O)CC3)nc(N3CCOCC3)nc2cc1OCCCN1CCCC1 [Compound 102, 4-((6-methoxy-2-morpholino-7-(3-(pyrrolidin-1-yl)propoxy)quinazolin-4-yl)amino)tetrahydro-2H-thiopyran 1,1-dioxide]
The IC50 of the first is 2.6-fold lower: 23.4 µM for the first, 60.6 µM for the second. The first is the more potent here.

`COc1cc2c(NC3CCS(=O)(=O)CC3)nc(N3CCS(=O)(=O)CC3)nc2cc1OCCCN1CCCC1` [Compound 103, 4-(4-((1,1-dioxidotetrahydro-2H-thiopyran-4-yl)amino)-6-methoxy-7-(3-(pyrrolidin-1-yl)propoxy)quinazolin-2-yl)thiomorpholine 1,1-dioxide] and `COc1cc2c(NC3CCS(=O)(=O)CC3)nc(N3CCN(C)CC3)nc2cc1OCCCN1CCCC1` [Compound 109, 4-((6-methoxy-2-(4-methylpiperazin-1-yl)-7-(3-(pyrrolidin-1-yl)propoxy)quinazolin-4-yl)amino)tetrahydro-2H-thiopyran 1,1-dioxide] cannot be ordered by IC50: greater than 100 µM for the first, greater than 100 µM for the second.

First: COc1cc2c(NC3CCS(=O)(=O)CC3)nc(N3CCCN(C)CC3)nc2cc1OCCCN1CCCC1 [Compound 110, 4-((6-methoxy-2-(4-methyl-1,4-diazepan-1-yl)-7-(3-(pyrrolidin-1-yl)propoxy)quinazolin-4-yl)amino)tetrahydro-2H-thiopyran 1,1-dioxide]
Second: COc1cc2c(NC3CCOCC3)nc(N3CCCN(C)CC3)nc2cc1OCCCN1CCCC1 [Compound 237, 6-methoxy-2-(4-methyl-1,4-diazepan-1-yl)-7-(3-(pyrrolidin-1-yl)propoxy)-N-(tetrahydro-2H-pyran-4-yl)quinazolin-4-amine]
The IC50 of the first is higher: greater than 100 µM for the first, 95.5 µM for the second. The second is the more potent here.

Going from `COc1cc2c(Nc3ccncc3)nc(-n3ccnc3)nc2cc1OCCCN1CCCC1` [Compound 130, 2-(1H-imidazol-1-yl)-6-methoxy-N-(pyridin-4-yl)-7-(3-(pyrrolidin-1-yl)propoxy)quinazolin-4-amine] to `COc1cc2c(NC3CCN(C(C)C)CC3)nc(-n3cccn3)nc2cc1OCCCN1CCCC1` [Compound 157, N-(1-isopropylpiperidin-4-yl)-6-methoxy-2-(1H-pyrazol-1-yl)-7-(3-(pyrrolidin-1-yl)propoxy)quinazolin-4-amine], the IC50 rises from 4.66 µM to greater than 100 µM. The first is the more potent here.

`COc1cc2c(N[C@H]3CCCNC3)nc(N3CCCC3)nc2cc1OCCCN1CCCC1` [Compound 158, (S)-6-methoxy-N-(piperidin-3-yl)-2-(pyrrolidin-1-yl)-7-(3-(pyrrolidin-1-yl)propoxy)quinazolin-4-amine] and `COc1cc2c(N[C@@H]3CCCNC3)nc(N3CCCC3)nc2cc1OCCCN1CCCC1` [Compound 159, (R)-6-methoxy-N-(piperidin-3-yl)-2-(pyrrolidin-1-yl)-7-(3-(pyrrolidin-1-yl)propoxy)quinazolin-4-amine] cannot be ordered by IC50: greater than 100 µM for the first, greater than 100 µM for the second.

`COc1cc2c(NC3CCOCC3)nc(N3CCC3)nc2cc1OCCCN1CCCC1` [Compound 174, 2-(azetidin-1-yl)-6-methoxy-7-(3-(pyrrolidin-1-yl)propoxy)-N-(tetrahydro-2H-pyran-4-yl)quinazolin-4-amine] and `COc1cc2c(NC3CCOCC3)nc(N3CCOCC3)nc2cc1OCCCN1CCCC1` [Compound 195, 6-methoxy-2-morpholino-7-(3-(pyrrolidin-1-yl)propoxy)-N-(tetrahydro-2H-pyran-4-yl)quinazolin-4-amine] cannot be ordered by IC50: greater than 100 µM for the first, greater than 100 µM for the second.

`COc1cc2c(NC3CCOCC3)nc(N3CCS(=O)(=O)CC3)nc2cc1OCCCN1CCCC1` [Compound 196, 4-(6-methoxy-7-(3-(pyrrolidin-1-yl)propoxy)-4-((tetrahydro-2H-pyran-4-yl)amino)quinazolin-2-yl)thiomorpholine 1,1-dioxide] and `COc1cc2c(NC3CCOCC3)nc(N3CCN(C)CC3)nc2cc1OCCCN1CCCC1` [Compound 236, 6-methoxy-2-(4-methylpiperazin-1-yl)-7-(3-(pyrrolidin-1-yl)propoxy)-N-(tetrahydro-2H-pyran-4-yl)quinazolin-4-amine] cannot be ordered by IC50: greater than 100 µM for the first, greater than 100 µM for the second.

`COc1cc2c(NC3CCS(=O)(=O)CC3)nc(N3CCC(F)(F)CC3)nc2cc1C#CCN1CCCC1` [Compound 248, 4-((2-(4,4-difluoropiperidin-1-yl)-6-methoxy-7-(3-(pyrrolidin-1-yl)prop-1-yn-1-yl)quinazolin-4-yl)amino)tetrahydro-2H-thiopyran 1,1-dioxide] was tested, and the IC50 was 43.1 µM.
